Reference: EP4796125A1, “TREATMENT OF PATIENT WITH NEGATIVE P53 GENE MUTATION, POSITIVE KRAS GENE MUTATION AND POSITIVE BRCA MUTATION” (Ascentawits Pharmaceuticals, Ltd., priority 2023, dated 2025)
Peptide text beside a SMILES is read from it. * marks the point of attachment. Cbz = O=C(OCc1ccccc1)*

Assays:
[1] = tested on: NCI-H460 cells; experiment: In vitro proliferation under normoxia conditions (CTG, 72 hours), Example 29; type: cell-based
Method: (§1) • 1) NCI-H460 and NCI-H460 P53KO # 1 cell suspensions were added to 96-well plate (100 µL per well), with a cell density of 2000 cells/well. • 2) The cells were cultured overnight in a 37°C, 5% CO2 incubator. • 3) Compound Treatment
(§2) Monotherapy: 24 hours after cell plating, each well was supplemented with 99.5 µL of growth medium. Then, 0.5 µL of test compounds at different concentrations was added. The plate was gently shaken to ensure even mixing, and then placed in a 37°C, 5% CO2 incubator.
(§3) Combination therapy: 24 hours after cell plating, each well was supplemented with 99 µL of growth medium. Then, 0.5 µL of the combination compound was added. The plate was gently shaken to ensure even mixing, and then placed in an incubator for 2 hours. Then, 0.5µL of test compounds at different concentrations was added. The plate was gently shaken to ensure even mixing, and then placed in a 37°C, 5% CO2 incubator. • 4) The cell plate was placed in the incubator for 72 hours. • 5) The cell plate to be tested was placed at room temperature and equilibrated for 30 minutes, and 100 µL of medium was discarded from each well. • 6) 25 µL of CTG reagent was added to each well, placed at a fast shaker to shake for 2 minutes, and placed at room temperature for 30 minutes (protected from light). • 7) The chemiluminescence signal value was read using a multifunctional microplate reader with a reading time of 1000 ms. • 8) IC50 (half maximal inhibitory concentration) values were calculated using GraphPad Prism 5 software.

[2] = tested on: NCI-H460 P53KO #1 cells; experiment: as above; type: cell-based, human; conditions: Table 25
Method: as §1, §2, §3

[3] = tested on: RAD51 protein in H460 cells; experiment: WB detection of RAD51 protein (level, degradation with MG-132, half-life with Cycloheximide); type: cell-based; conditions: 0.1 nM AST-3424, 5 µM Nutlin-3, then 5 µM MG-132 for 6 hours (Figure 21)
Method: In the first experiment, the second experiment and the third experiment about the effect of the combination of AST-3424 and Nutlin-3 on Ser15-p53, Ser20-p53, Total p53, MDM2, and p21 proteins in H460 cells in Example 21, the applicant also performed WB detection of RAD51 protein.
• 1) H460 cell suspension was added to a 24-well plate, with a cell density of 100000 cells/well and 995 µL of medium per well. • 2) The cells were cultured overnight in a 37°C, 5% CO2 incubator. • 3) Compound Treatment
Monotherapy: 24 hours after cell plating, 5 µL of test compounds at different concentrations was added: 1% DMSO, 0.1 nM AST-3424, and 5 µM Nutlin-3. The plate was gently shaken to ensure even mixing, and then placed in a 37°C, 5% CO2 incubator. After culturing for another 24 hours, the cells were collected.
Combination therapy: 24 hours after cell plating, • Adding 0.1 nM AST-3424 for pre-treatment for 2 hours, and then adding 5 µM Nutlin-3 for co-treatment for 22 hours; • Adding 1% DMSO and 5 µM MG-132 for co-treatment for 24 hours; • Adding 0.1 nM AST-3424 and 5 µM MG-132 for co-treatment for 24 hours; • Adding 5 µM Nutlin-3 and 5 µM MG-132 for co-treatment for 24 hours; • Adding 0.1 nM AST-3424 for pre-treatment for 2 hours, and then adding 5 µM Nutlin-3 for treatment for 16 hours, and then adding 5 µM MG-132 for co-treatment for 6 hours. […]

[4] = tested on: H460 cells; experiment: In vitro proliferation inhibition experiment (CTG, 72 hours), Example 20; type: cell-based; conditions: Homo sapiens, NCI-H460, read-out: Inhibition rate result / %
Method: (§4) • 1) H460 and HPAF-II cell suspensions were added to a 96-well plate (100 µL per well), with cell densities of 2000 cells/well and 20000 cells/well, respectively. • 2) The cells were cultured overnight in a 37°C, 5% CO2 incubator. • 3) Compound Treatment
(§5) Combination therapy: 24 hours after cell plating, each well was supplemented with 99 µL of growth medium. Then, 0.5 µL of Nutlin-3 or RITA was added to each well. The plate was gently shaken to ensure even mixing, and then placed in an incubator for 2 hours. Then, 0.5 µL of test compounds at different concentrations was added. The plate was gently shaken to ensure even mixing, and then placed in a 37°C, 5% CO2 incubator.
(§6) Monotherapy: 24 hours after cell plating, each well was supplemented with 99.5 µL of growth medium. Then, 0.5 µL of test compounds at different concentrations was added. The plate was gently shaken to ensure even mixing, and then placed in a 37°C, 5% CO2 incubator. • 4) The cell plate was placed in the incubator for 72 hours. • 5) The cell plate to be tested was placed at room temperature and equilibrated for 30 minutes, and 100 µL of medium was discarded from each well. • 6) 25 µL of CTG reagent was added to each well, placed on a fast shaker to shake for 2 minutes, and placed at room temperature for 30 minutes (protected from light). • 7) The chemiluminescence signal value was read using a multifunctional microplate reader with a reading time of 1000 ms, and the corresponding inhibition rate data were calculated.

[5] = tested on: HPAF-II cells; experiment: as above; type: cell-based, human; conditions: Homo sapiens, Table 15, HPAF-II, read-out: Inhibition rate/%
Method: as §4, §5, §6

[6] = tested on: NRF2 and AKR1C3 in HPAF II cells; conditions: 0.875, 1.75, 3.5, 7 µM SFN, overnight, with increasing concentration
Method: A solution of SFN compound (Sulforaphane, NRF2 activator) was added to HPAF II cell suspension. The mixture was cultured overnight in a 37°C, 5% CO2 incubator. The cell protein lysate was collected for Western Blotting (WB) detection. The experiment consisted of five groups: 0.5% DMSO, 0.875 µM SFN, 1.75 µM SFN, 3.5 µM SFN, and 7 µM SFN. HPAF II cells were treated with different concentrations of the NRF2 activator SFN, and then subjected to Western Blotting to detect the expressions of NRF2 and AKR1C3.

[7] = tested on: cell lines and mouse tumor models of BRCA pathogenic mutations; conditions: in vitro and in vivo pharmacodynamic experiments; data of WO2023174319A; cited from earlier work

SMILES: CN(C)C(=O)c1cccc(Oc2cc3c(cc2[N+](=O)[O-])OCCC3OP(=O)(N2CC2)N2CC2)c1 (stereo not shown) [Compound C]
- IC50 ([1]; Homo sapiens, Table 25, normoxia, alone or + 3 µM AST-3021): 2.05 nM
- Ratio, Compound C/AST-3424 ([1]; Table 25, IC50 ratio): 4.77
- IC50 ([2]; Homo sapiens, NCI-H460 P53KO # 1, normoxia, alone or + 3 µM AST-3021): 36.1 nM
- Ratio, knockout / wild-type ([2]; IC50 in NCI-H460 P53KO # 1 / NCI-H460): 17.60
- Ratio, Compound C/AST-3424 ([2]; NCI-H460 P53KO # 1, IC50 ratio): 6.62

SMILES: CC(C)C[C@@H](C=O)NC(=O)[C@H](CC(C)C)NC(=O)[C@H](CC(C)C)NC(=O)OCc1ccccc1 [MG-132] (Cbz-Leu-Leu-Leu-aldehyde)
- RAD51 protein level after addition of MG-132 [3]: reverses the downregulation of RAD51 protein

SMILES: OCc1ccc(-c2ccc(-c3ccc(CO)s3)o2)s1 [RITA]
- inhibition at 0.025 µM ([4]; Table 13, H460, group 1: AST 0.5 nM, RITA 0.025 µM, AST + RITA 0.5+0.025): 22.3%
- inhibition at 0.05 µM ([4]; Table 13, H460, group 2: AST 0.5 nM, RITA 0.05 µM, AST + RITA 0.5+0.05): 22.4%
- inhibition at 2.5 µM ([5]; group 1: AST 60 nM, RITA 2.5 µM, AST + RITA 60+ 2.5): 2.86%
- inhibition at 5 µM ([5]; group 2: AST 60 nM, RITA 5 µM, AST + RITA 60+ 5): 5.56%

SMILES: C[S+]([O-])CCCCN=C=S (stereo not shown) [SFN, Sulforaphane]
- expression of AKR1C3 [6]: also increases simultaneously
- expression of NRF2 [6]: increases significantly

SMILES: Cn1c(COP(=O)(NCCBr)NCCBr)cnc1[N+](=O)[O-] [TH-302]
- sensitivity of cell lines and mouse tumor models of BRCA pathogenic mutations [7]: more sensitive
